Data on 30 molecules can be found in paper PMC4648050, “Discovery of Inhibitors of Trypanosoma brucei by Phenotypic Screening of a Focused Protein Kinase Library” (Chemmedchem, 2015).

One assay relates to T. b. brucei. Description: Trypanosome proliferation assay. The settings on record: for EC50: Trypanosoma brucei, read-out: EC50 T. b. brucei; for fold loss of activity (T. b. brucei EC50): relative to the comparator compound. The format is cell-based, Trypanosoma brucei brucei. The method, then:
(§1) Trypanosome and MRC5 proliferation assay: Measurement of inhibition of the proliferation of MRC5 cells (human lung fibroblasts) and T. brucei bloodstream-stage cells was performed using a modification of a cell viability assay previously described.[35, 36] Compounds ([…] to 0.5 nM) were incubated with 2×10^3 cells per well in 0.2 mL of the appropriate culture medium (MEM with 10 % foetal bovine serum for MRC5 cells) in clear 96-well plates. Plates were incubated at 37 °C in the presence of 5 % CO2 for 69 h. Resazurin was then added to a final concentration of 50 μM, and plates were incubated as above for a further 4 h before being read on a BioTek Flx800 fluorescence plate reader.

The test system of assay [1] is MRC5 cells (human lung fibroblasts). Kind of assay: MRC5 proliferation assay. The format is cell-based. The settings on record: geometric mean of two or more determinations. The method, then: as §1
The subject of assay [2] is T. brucei bloodstream-stage cells. Description: Static–cidal (SC) assay. The format is cell-based, Trypanosoma brucei brucei. The settings on record: for EC50 / MCC: Trypanosoma brucei; for EC50: 48 h; for MCC: read-out: MCC (minimal cidal concentration); for mode of antiparasitic effect (in words): text and figure legend, at concentrations tested; for plateau of dose–response curve (inhibition): static–cidal dose–response curve. The method, then:
Determination of cidality against T. brucei bloodstream-stage cells was performed using a static–cidal (SC) assay as previously reported.[26] Briefly, bloodstream-form trypanosomes were seeded into 384-well plates at 4×10^5 mL^−1 (50 μL per well), followed by immediate addition of resazurin (50 μM final) to one of the plates, and all plates were incubated at 37 °C, 5 % CO2. After 4 h the t0 plate was read using a PerkinElmer Victor 3 plate reader (λex=528 nm, λem=590 nm). The second plate was processed in the same manner 20 h later, and at 44 h the last plate was processed. The minimum cidal concentration (MCC) is defined as the lowest concentration of drug that results in a decrease of resorufin signal over time. For dose–response curves from this assay either a monophasic or a biphasic equation was used, depending on which one provided the best fit. For monophasic fits, the following four-parametric equation [Eq. (1)] was used:
in which A=percent inhibition at bottom, B=percent inhibition at top, C=EC50, D=slope, x=inhibitor concentration, and y=percent inhibition. Equation (2) was used for biphasic fits:
for which A=percent inhibition at mid-plateau, B=slope, C=log[SC EC50(1)], D=log[SC EC50(2)]. Thus SC EC50(1) is the EC50 for the first phase of the curve, and SC EC50(2) is that for the second phase. Inhibition at the bottom of the curve is fixed at 0 % and at the top, 100 %.

Setting [3] is: geometric mean of two or more determinations, standard cell viability (resazurin) assay.
Setting [4] is: static cidal EC50, first site/phase, read-out: SC EC50(1).
Where [5] appears, read: static–cidal assay in triplicate.

Read-outs that look alike come from different tables or passages of the source.

In the case of `COCCCn1c(=O)[nH]c2ncc(-c3ccc(OC(F)(F)F)cc3)nc21` [Compound 2], the EC50 (as a rule, the concentration needed to bring the measured effect to its halfway point) in the assay with T. b. brucei (setting [3]) stood at 500 nM; in assay [1] it was 15 µM.

For the molecule `C[C@H](c1ccccc1)n1c(=O)[nH]c2ncc(-c3ccc(O)cc3)nc21` [Compound 3], the EC50 in the assay with T. b. brucei (setting [3]) is 900 nM.

Regarding `C[C@@H](c1ccccc1)n1c(=O)[nH]c2ncc(-c3ccc(F)cc3)nc21` [Compound 8], the EC50 is 90 nM in the assay with T. b. brucei (setting [3]) and over 50 µM in assay [1].

With `O=c1[nH]c2ncc(-c3ccc(F)cc3)nc2n1Cc1ccccc1` [Compound 9, 1-Benzyl-6-(4-fluorophenyl)-1H-imidazo[4,5-b]pyrazin-2(3H)-one], the EC50 with T. b. brucei (setting [3]) is 500 nM; in assay [1], over 50 µM.

Turning to `Cn1c(=O)[nH]c2ncc(-c3ccc(F)cc3)nc21` [Compound 11], the results for the EC50 (in the assay with T. b. brucei (setting [3]); in assay [1]) were 40000 nM and over 50 µM, respectively. The “fold loss of activity (T. b. brucei EC50)” value (from here on “fold loss of activity”) in the assay on T. b. brucei was determined as 100 fold.

As for `C[C@H](c1ccccc1)n1c(=O)[nH]c2ncc(-c3ccc(OC(F)(F)F)cc3)nc21` [Compound 15], the EC50 is 1000 nM with T. b. brucei (setting [3]) and 39 µM in assay [1]. Moreover, the “fold loss of activity” value with T. b. brucei is recorded as 10 fold.

Take `C[C@H](c1ccccc1)n1c(=O)[nH]c2nccnc21` [Compound 16]: the EC50 in the assay with T. b. brucei (setting [3]) was 36000 nM; in assay [1], over 50 µM. In addition, the “fold loss of activity” value in the assay with T. b. brucei is on record as over 300 fold.

As to `C[C@H](c1ccccc1)n1c(=O)[nH]c2ncc(-c3cccc(F)c3)nc21` [Compound 17], the EC50 with T. b. brucei (setting [3]) turned out to be 300 nM; in assay [1] it was 44 µM.

For the molecule `CNC(=O)c1ccc(-c2cnc3[nH]c(=O)n(C4CCCCC4)c3n2)cc1` [Compound 22], the results for the EC50 (with T. b. brucei (setting [3]); in assay [1]) were 1700 nM and over 50 µM, respectively. Moreover, the “fold loss of activity” value in the assay with T. b. brucei was determined as 30 fold.

Regarding `CN(C)Cc1ccc(-c2cnc3[nH]c(=O)n(C4CCCCC4)c3n2)cc1` [Compound 23], the values for the EC50 (with T. b. brucei (setting [3]); in assay [1]) were 5000 nM and over 50 µM, respectively. Moreover, the “fold loss of activity” value in the assay on T. b. brucei was determined as 50 fold.

With `CC(=O)Nc1cccc(-c2cnc3[nH]c(=O)n(C4CCCCC4)c3n2)c1` [Compound 25], the EC50 with T. b. brucei (setting [3]) is 900 nM; in assay [1], over 50 µM.

For `COc1ccccc1-c1cnc2[nH]c(=O)n(C3CCCCC3)c2n1` [Compound 27], the EC50 was 900 nM with T. b. brucei (setting [3]) and over 50 µM in assay [1].

Regarding `O=c1[nH]c2ncc(-c3ccncc3)nc2n1C1CCCCC1` [Compound 29], the EC50 with T. b. brucei (setting [3]) was 70 nM; in assay [1], over 50 µM.

`CN1CCN(c2cnc3[nH]c(=O)n(C4CCCCC4)c3n2)CC1` [Compound 33]: the EC50 with T. b. brucei (setting [3]) was 2000 nM; in assay [1], over 50 µM. Besides, the “fold loss of activity” value in the assay on T. b. brucei was 50 fold.

For the molecule `CC(C)n1c(=O)[nH]c2ncc(-c3ccccc3)nc21` [Compound 36], the EC50 in the assay on T. b. brucei (setting [3]) was 300 nM; in assay [1], over 50 µM. For the same molecule, the “fold loss of activity” value with T. b. brucei is 10 fold.

On to `O=c1[nH]c2ncc(-c3ccccc3)nc2n1-c1ccccc1` [Compound 37], for which the EC50 in the assay on T. b. brucei (setting [3]) was over 50000 nM; in assay [1] it was over 50 µM.

Take `COCC(C)n1c(=O)[nH]c2ncc(-c3ccccc3)nc21` (stereo not shown) [Compound 39, 1-(1-Methoxypropan-2-yl)-6-phenyl-1H-imidazo[4,5-b]pyrazin-2(3H)-one]: the EC50 is 200 nM in the assay with T. b. brucei (setting [3]); over 50 µM in assay [1]; 410 nM in assay [2] (setting [4]); 32000 nM in assay [2] (static cidal EC50, second site/phase, read-out: SC EC50(2)). Also, the MCC in assay [2] (setting [5]) is over 50000 nM. Moreover, the Mode entry in assay [2] (static/cidal classification from growth curves) is recorded as “S”. Moreover, the “mode of antiparasitic effect (in words)” value in assay [2] is “growth-slowing or static behaviour”.

`CCC(CO)n1c(=O)[nH]c2ncc(-c3ccccc3)nc21` (stereo not shown) [Compound 40]: the EC50 is 500 nM in the assay on T. b. brucei (setting [3]) and over 50 µM in assay [1]. Moreover, the “fold loss of activity” value in the assay with T. b. brucei is listed as about 10 fold.

`CN(C)CCn1c(=O)[nH]c2ncc(-c3ccccc3)nc21` [Compound 41]: the EC50 was 13000 nM in the assay on T. b. brucei (setting [3]) and over 50 µM in assay [1].

For the molecule `CN1CCC(n2c(=O)[nH]c3ncc(-c4ccccc4)nc32)CC1` [Compound 42], the EC50 is 2000 nM in the assay on T. b. brucei (setting [3]) and over 50 µM in assay [1].

As for `C[C@H](c1ccccc1)n1c(=O)[nH]c2ccc(-c3ccc(F)cc3)cc21` [Compound 47], the EC50 in the assay with T. b. brucei (setting [3]) turned out to be 10000 nM. The “fold loss of activity” value in the assay with T. b. brucei is listed as 100 fold.

On to `C[C@H](c1ccccc1)n1c(=O)n(C)c2ncc(-c3ccc(F)cc3)nc21` [Compound 48], for which the EC50 with T. b. brucei (setting [3]) amounted to 8000 nM. In addition, the “fold loss of activity” value in the assay with T. b. brucei stood at 100 fold.

For `CC(C)(c1ccccc1)n1c(=O)[nH]c2ncc(-c3cccnc3)cc21` [Compound 52], the EC50 was found to be 790 nM in the assay with T. b. brucei (setting [3]) and 23 µM in assay [1].

In the case of `O=c1[nH]c2ncc(-c3ccccc3CO)cc2n1C1CCCCC1` [Compound 53], the EC50 with T. b. brucei (setting [3]) was 670 nM; in assay [1], over 50 µM. Also, the “fold loss of activity” value with T. b. brucei is listed as about 13 fold.

For the molecule `CC(C)(c1ccccc1)n1c(=O)[nH]c2ncc(-c3ccccc3CO)cc21` [Compound 54], the results for the EC50 (in the assay with T. b. brucei (setting [3]); in assay [1]) were 15000 nM and over 50 µM, respectively.

Take `O=c1[nH]c2ncc(N3CCOCC3)cc2n1C1CCCCC1` [Compound 57]: the EC50 was 330 nM in the assay on T. b. brucei (setting [3]) and over 50 µM in assay [1]. For the same molecule, the “fold loss of activity” value in the assay on T. b. brucei was about 7 fold.

As to `OCc1ccccc1-c1cnc2[nH]nc(C3CCCCC3)c2c1` [Compound 61], the EC50 with T. b. brucei (setting [3]) is 1300 nM; in assay [1], over 50 µM.

As for `COCc1ccccc1-c1cnc2[nH]nc(C3CCCCC3)c2c1` [Compound 62], the figures for the EC50 (in the assay with T. b. brucei (setting [3]); in assay [1]) were 2600 nM and over 50 µM, respectively.

Take `Nc1nc(N)nc(Nc2ccc([As]3SCC(CO)S3)cc2)n1` (stereo not shown) [melarsoprol, reference compound]: the EC50 in the assay with T. b. brucei turned out to be 9 nM. The EC50 in assay [2] (read-out: SC EC50(1)) stood at 31 nM. Also, in assay [2], the MCC amounted to 100 nM and the “plateau of dose–response curve (inhibition)” value is reported as 100 % inhibition.

As to `N=C(N)c1ccc(OCCCCCOc2ccc(C(=N)N)cc2)cc1` [pentamidine, reference compound], the EC50 in the assay on T. b. brucei (setting [3]) worked out at 4 nM; in assay [2] (setting [4]), 19 nM. The MCC in assay [2] (setting [5]) worked out at 100 nM. Further, in assay [2], the “plateau of dose–response curve (inhibition)” value is given as 100 % inhibition. Also, the “mode of antiparasitic effect (in words)” value in assay [2] is reported as “cidal”.
